Measurements published in PubChem BioAssay (NCI).
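The compound was tested at five concentrations on cells cultured in 96-well plates, with a 48-hour exposure period. GI50 is the concentration that inhibits growth by half. TGI marks complete inhibition of growth.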

Experiments:
Test in all cases: DTP human tumour cell line panel, 48 h
HCC-2998 colon = system: HCC-2998 colon
IGROV1 ovarian = system: IGROV1 ovarian
M14 melanoma = system: M14 melanoma
MOLT-4 leukemia = system: MOLT-4 leukemia
NCI-H522 lung = system: NCI-H522 lung
SK-MEL-2 melanoma = system: SK-MEL-2 melanoma
SNB-19 CNS = system: SNB-19 CNS
SR leukemia = system: SR leukemia
U251 CNS = system: U251 CNS
MCF7 breast = system: MCF7 breast

Row | Structure (SMILES) | TGI (HCC-2998 colon) [µM] | TGI (IGROV1 ovarian) [µM] | TGI (M14 melanoma) [µM] | TGI (MOLT-4 leukemia) [µM] | TGI (NCI-H522 lung) [µM] | TGI (SK-MEL-2 melanoma) [µM] | TGI (SNB-19 CNS) [µM] | TGI (SR leukemia) [µM] | TGI (U251 CNS) [µM] | TGI (MCF7 breast) [µM] | GI50 (IGROV1 ovarian) [µM] | GI50 (NCI-H522 lung) [µM] | GI50 (SK-MEL-2 melanoma) [µM] | GI50 (SNB-19 CNS) [µM] | GI50 (U251 CNS) [µM] | GI50 (HCC-2998 colon) [µM] | GI50 (M14 melanoma) [µM] | GI50 (MOLT-4 leukemia) [µM] | GI50 (SR leukemia) [µM]
1 | CO/C(=N\N=C\c1ccc(Cl)cc1)c1ccncc1 | > 100 | > 100 | > 100 | > 100 | > 100 | > 100 | > 100 | > 100 | > 100 | – | – | – | – | – | – | – | – | – | –
2 | O=C(O)CC(NC(=O)Nc1ccc([N+](=O)[O-])cc1)C(=O)Nc1ccc([N+](=O)[O-])cc1 (stereo not given) | > 100 | > 100 | > 100 | > 100 | > 100 | > 100 | > 100 | – | > 100 | > 100 | – | – | – | – | – | – | – | – | –
3 | O=S(=O)(c1ccccc1)n1c(C(O)c2ccncc2)cc2ccccc21 (stereo not given) | – | > 100 | > 100 | > 100 | – | > 100 | > 100 | > 100 | > 100 | 40.5 | – | – | – | – | – | – | – | – | –
4 | CN(C)N=Nc1ccc([N+](=O)[O-])cc1C(N)=O | > 100 | > 100 | – | > 100 | > 100 | > 100 | > 100 | – | > 100 | > 100 | – | – | – | – | – | – | – | – | –
5 | COc1ccc(-c2oc3ccc(C)cc3c(=O)c2O)cc1 | > 100 | > 100 | > 100 | > 100 | > 100 | > 100 | > 100 | – | > 100 | > 100 | – | – | – | – | – | – | – | – | –
6 | COc1cc2c(cc1OCCCC(=O)Nc1cc(C(=O)Nc3cc(C(=O)Nc4cc(C(=O)NCCCN(C)C)n(C)c4)n(C)c3)n(C)c1)N=C[C@@H]1CCCN1C2=O | 28.2 | 8.74 | 3.11 | > 100 | 0.427 | 6.79 | 17.6 | – | 3.01 | 7.25 | – | – | – | – | – | – | – | – | –
7 | COc1ccc(/C=N\N2CC(=O)N3C4C=CC(CC4)N3C2=O)cc1 (stereo not given) | – | > 100 | > 100 | > 100 | – | > 100 | > 100 | > 100 | > 100 | > 100 | – | – | – | – | – | – | – | – | –
8 | Cc1cn(C2CC(O)C(CO)C2C)c(=O)[nH]c1=O (stereo not given) | > 100 | > 100 | > 100 | > 100 | > 100 | > 100 | > 100 | – | > 100 | – | – | – | – | – | – | – | – | – | –
9 | O=C1C=Cc2c(Cl)sc(Cl)c21 | 13.8 | 3.09 | 3.99 | – | – | 5.32 | 19.8 | – | > 100 | 3.9 | – | – | – | – | – | – | – | – | –
10 | COC(c1ccsc1)C(C#N)(C#N)N=Cc1ccsc1 (stereo not given) | 34 | 52 | 33.7 | 43.3 | 21.3 | 35.6 | 55.3 | – | 33.5 | 15.6 | – | – | – | – | – | – | – | – | –
11 | CCOC(=O)C(=[N+]=[N-])C(=O)C[N+]12CCN(CC1)CC2 | > 100 | > 100 | > 100 | > 100 | > 100 | > 100 | > 100 | > 100 | > 100 | – | – | – | – | – | – | – | – | – | –
12 | CCNc1nc(N)c(C(=O)c2ccc(Cl)cc2)s1 | – | > 100 | > 100 | > 100 | – | > 100 | 58.8 | – | > 100 | > 100 | – | – | – | – | – | – | – | – | –
13 | O=[N+]([O-])C(/C(Cl)=C(/Cl)N1CCOCC1)=C1\NCCO1 | > 100 | – | > 100 | > 100 | – | > 100 | > 100 | – | > 100 | > 100 | – | – | – | – | – | – | – | – | –
14 | CSc1nc2ccccc2c(=O)n1/N=C1\C(=O)N(CN2CCOCC2)c2ccc(Cl)cc21 | – | > 100 | > 100 | 42.8 | 89.8 | 51.6 | > 100 | – | > 100 | > 100 | – | – | – | – | – | – | – | – | –
15 | CN(C)CCCn1c(Cc2ccccc2)nc2cc(C(F)(F)F)ccc21 | – | > 100 | 30.4 | 48.3 | 48.3 | 33 | 86.9 | – | 38.8 | 39.3 | – | – | – | – | – | – | – | – | –
16 | COc1cc(Oc2nc3ccccc3nc2C(=O)O)cc(OC)c1OC | > 100 | > 100 | > 100 | > 100 | > 100 | > 100 | > 100 | > 100 | > 100 | – | – | – | – | – | – | – | – | – | –
17 | Cc1cc(S(=O)(=O)Nc2nc3ccsc3c(=O)n2N)c(S)cc1Cl | > 100 | > 100 | > 100 | > 100 | > 100 | > 100 | > 100 | – | > 100 | > 100 | – | – | – | – | – | – | – | – | –

Row | Structure (SMILES) | TGI (HCC-2998 colon) [µM] | TGI (IGROV1 ovarian) [µM] | TGI (M14 melanoma) [µM] | TGI (MOLT-4 leukemia) [µM] | TGI (NCI-H522 lung) [µM] | TGI (SK-MEL-2 melanoma) [µM] | TGI (SNB-19 CNS) [µM] | TGI (SR leukemia) [µM] | TGI (U251 CNS) [µM] | TGI (MCF7 breast) [µM] | GI50 (IGROV1 ovarian) [µM] | GI50 (NCI-H522 lung) [µM] | GI50 (SK-MEL-2 melanoma) [µM] | GI50 (SNB-19 CNS) [µM] | GI50 (U251 CNS) [µM] | GI50 (HCC-2998 colon) [µM] | GI50 (M14 melanoma) [µM] | GI50 (MOLT-4 leukemia) [µM] | GI50 (SR leukemia) [µM]
18 | COC(=O)C1=C(C)N2CCCOC2(C)C(C(=O)OC)C1c1cccc(Cl)c1 (stereo not given) | > 100 | > 100 | 74.7 | 45.1 | – | 36.6 | > 100 | – | – | – | – | – | – | – | – | – | – | – | –
19 | CCCC(Sc1nc(N)nc2nc[nH]c12)C(=O)O (stereo not given) | 76.9 | > 100 | > 100 | > 100 | > 100 | > 100 | > 100 | – | > 100 | > 100 | – | – | – | – | – | – | – | – | –
20 | Cc1ccc(S(=O)(=O)NC(=O)NC(Cc2c[nH]c3ccccc23)C(=O)O)cc1 (stereo not given) | – | > 100 | > 100 | > 100 | > 100 | > 100 | > 100 | > 100 | > 100 | – | – | – | – | – | – | – | – | – | –
21 | Cc1cc2c(cc1-c1cc3c(cc1C)C(C(C)C)=C(O)C(=O)/C3=C\Nc1nc(-c3ccccc3)cs1)/C(=C/Nc1nc(-c3ccccc3)cs1)C(=O)C(O)=C2C(C)C | – | 53.4 | 30.1 | > 100 | – | 50.9 | 37.9 | > 100 | 27.5 | 41.1 | – | – | – | – | – | – | – | – | –
22 | CCOC(=O)C1=CN=C2C(=O)N(c3ccccc3)N(C)C2(C)C1=N (stereo not given) | > 100 | > 100 | > 100 | – | > 100 | > 100 | > 100 | – | > 100 | > 100 | – | – | – | – | – | – | – | – | –
23 | O=S(=O)(c1cc(Cl)ccc1Cl)N1CCN(S(=O)(=O)c2cc(Cl)ccc2Cl)CC1 | > 100 | > 100 | > 100 | > 100 | > 100 | > 100 | > 100 | – | > 100 | > 100 | – | – | – | – | – | – | – | – | –
24 | Cc1c(CNc2ccc(Cl)c(C(=O)NC(CC(=O)O)C(=O)O)c2)ccc2nc(N)nc(N)c12 (stereo not given) | – | 232 | > 1000 | > 1000 | 682 | > 1000 | > 1000 | – | > 1000 | > 1000 | 50.4 | 211 | > 1000 | 0.382 | 75.8 | – | – | – | –
25 | CC(C)CC(=O)NC(Nc1ccc(S(=O)(=O)Nc2ncccn2)cc1)(C(F)(F)F)C(F)(F)F | > 100 | > 100 | > 100 | > 100 | > 100 | > 100 | > 100 | > 100 | > 100 | – | – | – | – | – | – | – | – | – | –
26 | CC/C(Cl)=N\OC(=O)Nc1ccc(OC)cc1 | 15.7 | 17.5 | 9.77 | 5.59 | 2.18 | 33 | 56.2 | – | > 57.2 | 12.2 | – | – | – | – | – | – | – | – | –
27 | Nn1c(Cc2ccc(Cl)cc2)n[nH]c1=O | > 100 | > 100 | > 100 | > 100 | > 100 | > 100 | > 100 | > 100 | > 100 | – | – | – | – | – | – | – | – | – | –
28 | CCN(CC)CCCCCCCCNc1c2ccc(Cl)cc2nc2ccc(OC)cc12 | 6.99 | 20.5 | 3.34 | 4.68 | 3.81 | – | 4.63 | 0.73 | 2.97 | – | 3.44 | 1.8 | – | 1.81 | 1.38 | 1.77 | 1.84 | 0.951 | 0.289
29 | Cc1nc2c(cc1C(=O)NN)c(=O)n(C)c(=O)n2C | > 100 | > 100 | > 100 | > 100 | – | > 100 | > 100 | – | > 100 | > 100 | – | – | – | – | – | – | – | – | –
30 | C=Nc1ccc([N+](=O)[O-])cc1 | > 100 | > 100 | > 100 | > 100 | > 100 | > 100 | > 100 | > 80.1 | > 100 | – | – | – | – | – | – | – | – | – | –
31 | CSC1=Nc2ccccc2-c2nc(-c3ccccc3)cc(-c3ccccc3)c2C1 | > 100 | 32.1 | 37.1 | > 100 | 40.1 | – | > 100 | > 100 | 44.4 | – | – | – | – | – | – | – | – | – | –
32 | C=CCOc1ccc(C2c3c([nH][nH]c3=O)CC(O)(OCC)C2C(=O)OCC)cc1OC (stereo not given) | > 100 | > 100 | > 100 | > 100 | > 100 | > 100 | > 100 | – | > 100 | > 100 | – | – | – | – | – | – | – | – | –
33 | Oc1nc(N/N=C/c2c[nH]c3ccccc23)[nH]c1/C=C1\C=Nc2ccccc21 | – | 41.2 | 75.9 | 22.3 | 24.2 | 36.5 | > 100 | – | 32.3 | 29.5 | – | – | – | – | – | – | – | – | –
34 | C/C(O)=C/c1nc2ccccc2nc1/C=C(/C)O | – | 54.7 | 44.4 | 46.5 | 27.7 | 40.1 | > 100 | 77.5 | 50.9 | – | – | – | – | – | – | – | – | – | –
